Source: patent US12296009B2, “Immunogenic composition for the treatment of cancer” (APGEN THERAPUETICS AB, priority 2017, dated 2025)

Columns and labels:
[1] = test system: HLA class I; assay: HLA class I expression on tumor cells by flow cytometry; type: cell-based, human; settings: for HLA class I induction by IFNγ in combination with BETi: increasing BETi concentrations with a standard concentration of IFNγ (FIG. 5)
Protocol: (§1) Flow cytometry was done after staining with the following antibodies: anti-human HLA-ABC APC-Cy7 (clone W6/32; Biolegend, San Diego, CA, USA), CD274 BV786 (clone MIH1; BD Biosciences, Franklin lakes, NJ, USA). All data were acquired on a Novocyte 2000 [?] flow cytometer (Acea Biosciences, San Diego, CA, USA) were analyzed using FlowJo software version 10 (Treestar).
(§2) We show herein that treating patient-derived early-passage melanoma cell lines with JQ1 enhances recognition by autologous TIL. […] Along with this, PD-L1 and HLA class I expression were assessed by flow cytometry in pretreated tumor cells to find out whether functional observations in the tumor-TIL co-cultures would be associated with changes in PD-L1 expression or HLA class I expression, both markers being key determinants of T-cell activation upon target cell recognition.

[2] = test system: ANRU tumor cells; assay: Co-culture of pretreated ANRU tumor cells with autologous TIL, IFNγ ELISA on supernatant; type: cell-based, human; settings: for Time kinetics of sensitization for recognition by TIL: ANRU pretreated 12, 24, 48 and 72 hours; for Time kinetics of sensitization for recognition by TIL / T-cell recognition by autologous TIL (IFNγ production in co-culture): 24 hours co-culture
Protocol: Tumor cells were also co-cultured with unsorted TIL, and TIL without specificity for the aforementioned tumor antigens (designated ‘neg’).
(§3) Cells were subsequently trypsinized, washed and co-cultured for 24 hours with autologous tumor-infiltrating lymphocytes (TIL). Co-culture supernatants were assessed by ELISA for IFNγ levels, as a measure for tumor recognition by the TIL.
(§4) The early-passage melanoma cell lines ANRU, ROAL and KADA were established from patients at the oncology clinic at Karolinska University Hospital (ethical permit: #2011/143-32/1) based on a published protocol.21 Mycoplasma-free (MycoAlert kit) cell lines were in their 15th to 45th passage when used in this study.
(§5) Culture and expansion of tumor-infiltrating lymphocytes was done as published before.^4 A piece of the tumor (approximately 0.5 cm3) was minced into 1 mm3 pieces. Each piece was placed in one well of a 24-well plate containing 1 mL/well CellGro medium supplemented with 2% autologous plasma (generated by centrifugation and heat-inactivation of plasma collected on the day of surgery) and 6,000 IU/mL IL-2 (Proleukin, Novartis, Basel, Switzerland). On day 1 of culture, half of the medium volume in each well was replaced with fresh medium supplemented with plasma and IL-2. After 3-4 days of culture, lymphocytes could usually be seen emerging from the tumor piece. Cultures were monitored regularly and split before reaching confluence. After approximately 2 weeks, expanding wells were pooled and counted. To generate large T cell numbers, TIL were cultured for approximately 14 days in presence of autologous, irradiated feeders (40 Gy, TIL:feeder ratio 1:50-1:80) with 300 IU/mL IL-2 and 30 ng/mL anti-CD3 antibody (OKT3, Cilag, Zug, Switzerland). Cells were split or medium exchanged as necessary. Cultures were initiated in standing T75 flasks, but transferred to VueLife cell culture bags 1 week before harvest. At the end of culture, cells were harvested, pooled, characterized, counted and frozen.
as §2
To test this, we co-cultured ANRU tumor cells for 24 hours with autologous TIL in the presence and absence of a PD-L1 blocking antibody. Suitable PD-L1 blocking antibodies are commercially available, and include anti-human CD274 (B7-H1, PD-L1) Antibody (clone 29E.2A3; Cat No. 329709; Biolegend), anti-human CD274 (B7-H1, PD-L1) Antibody (clone MIH3; Cat No. 374502; Biolegend), Anti-PD-L1 (CD274) Neutralizing Antibody (Cat No. 71213; BPS Bioscience), PD-L1/B7-H1/CD274 Blocking Antibody (clone R639; Cat No. 10084-R639; Sino Biological) and Human PD-L1/B7-H1 Antibody (Cat No. AF156; R and D Systems). Tumors cell were pretreated for 12, 24, 48 and 72 hours, to check for any PD-L1 induction or suppression over time by flow cytometry, and to define the time kinetics of JQ1-induced sensitization of tumors for recognition by TIL in a co-culture. We reasoned that recognition by autologous TIL should not be affected by PD-L1 blockade at any time point if ANRU tumor cells would be PD-L1 negative under all conditions.
Herein, we addressed the question whether enhanced tumor recognition by autologous TIL after JQ1 treatment is directed at tumor-associated antigens or tumor-specific mutant antigens. Therefore we co-cultured ANRU cells with TIL sorted for their specifity towards either the tumor-associated antigen MART-1, or two different tumor-specific mutant antigens, designated ETV6.9 and NUP210.

[3] = test system: ROAL tumor cells; assay: Co-culture of pretreated ROAL tumor cells with autologous TIL, IFNγ ELISA on supernatant; type: cell-based, human
Protocol: as §3, §4
as §5, with “To generate large T cell numbers, TIL were cultured for approximately 14 days in presence of autologous, irradiated feeders (40 Gy, TIL:feeder ratio 1:50-1:80) with 300 IU/mL IL-2 and 30 ng/mL anti-CD3 antibody (OKT3, Cilag, Zug, Switzerland). Cells were split or medium exchanged as necessary. Cultures were initiated in standing T75 flasks, but transferred to VueLife cell culture bags 1 week before harvest.” left out
as §2

[4] = test system: KADA tumor cells; assay: Co-culture of pretreated KADA tumor cells with autologous TIL, IFNγ ELISA on supernatant; type: cell-based, human
Protocol: as §3, §4
as §5, with “To generate large T cell numbers, TIL were cultured for approximately 14 days in presence of autologous, irradiated feeders (40 Gy, TIL:feeder ratio 1:50-1:80) with 300 IU/mL IL-2 and 30 ng/mL anti-CD3 antibody (OKT3, Cilag, Zug, Switzerland). Cells were split or medium exchanged as necessary. Cultures were initiated in standing T75 flasks, but transferred to VueLife cell culture bags 1 week before harvest.” left out
as §2

[5] = test system: A375 tumor cells; assay: Co-culture of pretreated A375 tumor cells with allogeneic T cells, IFNγ ELISA on supernatant; type: cell-based, human; settings: A375, 72 hours JQ1 alone or in combination with IFNγ, 24 hours co-culture with allogeneic T cells
[6] = test system: PD-L1; assay: PD-L1 expression on tumor cells by flow cytometry; type: cell-based, human; settings: 72 hours JQ1 and/or IFNγ
Protocol: as §1, §2

[7] = test system: HLA class II; assay: HLA class II expression on tumor cells by flow cytometry; type: cell-based, human
[8] = test system: IDO; assay: IDO expression in tumor cells by flow cytometry; type: cell-based, human; settings: early-passage melanoma cell lines, 72 hours JQ1 and/or IFNγ (FIG. 6)
[9] = test system: CD73; assay: CD73 expression on tumor cell lines by flow cytometry; type: cell-based; settings: commercially available human tumor cell lines of various origins, 72 hours JQ1 and/or IFNγ (FIG. 7)
[10] = test system: antigen-presentation machinery (APM); assay: mRNA expression of antigen-presentation machinery components by qPCR; type: cell-based, human
Protocol: (§6) This was most apparent for HLA class I heavy chain, and overall was most clearly seen in A375 cells.
Moreover, the presence of a HLA class I blocking antibody always fully abrogated T-cell recognition in co-cultures with pretreated tumors. […] Therefore, we studied mRNA and protein expression of well-known components of the antigen-presentation machinery (APM) after pretreatment with JQ1 alone and/or IFNγ.
(§7) To study the time kinetics of these effects, the ANRU cell line was treated in the same way for 12, 24, 48 and 72 hours. […] This was most apparent for HLA class I heavy chain, and overall was most clearly seen in A375 cells.

[11] = test system: antigen-presentation machinery (APM); assay: Western blot of antigen-presentation machinery components; type: cell-based, human; settings: ANRU, ROAL, KADA and A375 cells, 72 hours JQ1 and/or IFNγ; most clearly in A375
Protocol: as §6, §7

[12] = test system: STAT1; assay: STAT1 mRNA expression by RT-qPCR; type: cell-based, human; settings: ANRU, ROAL and A375 cells, JQ1 with IFNγ
Source text: (§8) (B) mRNA expression levels, measured by RT-qPCR, in ANRU, ROAL and A375 cells of STAT1 and JAK1, two proteins crucially involved in signaling downstream of IFNγ ligation to its cognate receptor.

[13] = test system: JAK1; assay: JAK1 mRNA expression by RT-qPCR; type: cell-based, human; settings: ANRU, ROAL and A375 cells, JQ1 by itself and in combination
Source text: as §8

[14] = test system: MYC; assay: MYC expression by western blot; type: cell-based; settings: 72 hours JQ1 alone or in combination with IFNγ
[15] = ANRU, 72 hours pretreatment with the substance alone
[16] = pretreatment with the substance alone
[17] = ANRU, 72 hours, IFNγ in the presence of JQ1

## COc1cc2c(cc1-c1c(C)noc1C)ncc1[nH]c(=O)n([C@H](C)c3ccccn3)c12 [I-BET151]
[1]; A375, 72 hours
  HLA class I induction by IFNγ in combination with BETi: clearly increased
[1]; ROAL, 72 hours
  HLA class I induction by IFNγ in combination with BETi: clearly increased

## CCNC(=O)C[C@@H]1N=C(c2ccc(Cl)cc2)c2cc(OC)ccc2-n2c(C)nnc21 [I-BET762]
[1]; A375, 72 hours
  HLA class I induction by IFNγ in combination with BETi: clearly increased
[1]; ROAL, 72 hours
  HLA class I induction by IFNγ in combination with BETi: clearly increased

## Cc1sc2c(c1C)C(c1ccc(Cl)cc1)=N[C@@H](CC(=O)OC(C)(C)C)c1nnc(C)n1-2 [JQ1]
[2]; ANRU pretreated 12, 24, 48 and 72 hours with JQ1 and/or IFNγ, 24 hours co-culture with or without PD-L1 blocking antibody
  Effect of PD-L1 blocking antibody on recognition of pretreated tumor cells by TIL: no effect of PD-L1 blockade was seen
[2]
  Time kinetics of sensitization for recognition by TIL: most prominent after pretreatment with JQ1 alone for 72 hours
[2]; ANRU, 0.4 μM JQ1 for 72 hours
  Recognition by TIL sorted for MART-1, ETV6.9 and NUP210 specificity (IFNγ in co-culture supernatant): improved recognition by all three TIL populations
[2]; ANRU, 72 hours pretreatment with JQ1 in combination with IFNγ
  T-cell recognition by autologous TIL (IFNγ production in co-culture): did not lead to any increases in T-cell recognition
[2]; [15]
  T-cell recognition by autologous TIL (IFNγ production in co-culture): dose-dependent increase in T-cell recognition
[3]; pretreatment with combination of JQ1 and IFNγ
  Recognition by autologous TIL (IFNγ production in co-culture): significantly better and synergistically recognize
[3]; [16]
  Recognition by autologous TIL (IFNγ production in co-culture): did not sensitize
[4]; pretreatment with combination of IFNγ and JQ1, versus IFNγ
  Recognition by autologous TIL (IFNγ production in co-culture): led to a reduction in tumor cell recognition
[4]; [16]
  Recognition by autologous TIL (IFNγ production in co-culture): did not sensitize
[5]
  T-cell recognition (IFNγ levels in co-culture supernatants) compared to DMSO-treated tumor cells: strongly and significantly enhanced
[6]; ANRU
  PD-L1 expression: wholly absent under all conditions
[6]; KADA
  Constitutive and IFNγ-induced PD-L1 expression: strongly suppressed
[6]; ROAL
  PD-L1 expression: marginal if not absent under all conditions
[1]; A375, 72 hours, IFNγ in the presence of JQ1 (FIG. 1)
  HLA class I induction by IFNγ: enhances HLA class I induction by IFNγ
[1]; A375, 72 hours
  HLA class I induction by IFNγ in combination with BETi: clear dose-dependent enhancement of HLA class I induction by IFNγ
[1]; A549 (lung carcinoma), 72 hours JQ1 and/or IFNγ
  HLA class I induction by IFNγ: enhances HLA class I induction by IFNγ
[1]; [17]
  HLA class I induction by IFNγ: consistent enhancement of HLA class I induction by IFNγ
[1]; HCT116 (colon carcinoma), 72 hours JQ1 and/or IFNγ
  HLA class I induction by IFNγ: enhances HLA class I induction by IFNγ
[1]; HeLa (cervical carcinoma), 72 hours JQ1 and/or IFNγ
  HLA class I induction by IFNγ: enhances HLA class I induction by IFNγ
[1]; KADA, 72 hours, IFNγ in the presence of JQ1
  HLA class I induction by IFNγ: reduced HLA class I induction by IFNγ
[1]; ROAL, 72 hours, IFNγ in the presence of JQ1
  HLA class I induction by IFNγ: significantly more strongly induced by IFNγ
[1]; ROAL, 72 hours
  HLA class I induction by IFNγ in combination with BETi: clear dose-dependent enhancement of HLA class I induction by IFNγ
[7]; [17]
  HLA class II upregulation by IFNγ: upregulation of HLA class II was actually suppressed
[7]; early-passage melanoma cell lines, 72 hours JQ1 and/or IFNγ (FIG. 6)
  Constitutive and IFNγ-induced HLA class II expression: clearly suppressed
[8]
  IFNγ-induced IDO expression: suppresses IFNγ-induced IDO expression
[9]
  CD73 induction by IFNγ: suppresses CD73 induction by IFNγ
[10]; ANRU, 12, 24, 48 and 72 hours, 0.4 μM JQ1 and/or 25 ng/ml IFNγ
  mRNA induction of APM components by IFNγ, time kinetics: potentiated the induction of APM components by IFNγ at all time points
[10]; ANRU, ROAL, KADA and A375 cells, 72 hours JQ1 and/or IFNγ, most pronounced for HLA class I, B2M, TAP1 and TAP2
  mRNA induction of APM components by IFNγ: potentiated their induction by IFNγ
[11]
  Protein level induction of APM components by IFNγ (TAP1, TAP2, Tapasin, HLA class I heavy chain, LMP2, LMP10): Enhanced induction of APM components by IFNγ
[12]
  STAT1 mRNA induction by IFNγ: strongly enhances induction of STAT1 by IFNγ
[13]
  JAK1 mRNA expression: consistently increases JAK1 expression
[14]
  MYC expression: downregulated

## IFNγ: Interferon gamma (IFNγ), a known physiological cue for sensitization of target cells for T-cell recognition
[2]
  Time kinetics of sensitization for recognition by TIL: did not lead to an improvement of tumor recognition
[2]; [15]
  T-cell recognition by autologous TIL (IFNγ production in co-culture): did not lead to any increases in T-cell recognition
[3]; [16]
  Recognition by autologous TIL (IFNγ production in co-culture): did not sensitize the cells
[4]; [16]
  Recognition by autologous TIL (IFNγ production in co-culture): strongly sensitized
